How the values were obtained:
Format in all cases: cell-based
[1] = tested on: Aggregatibacter actinomycetemcomitans; test: Twenty-four hour optical density growth in BHI; conditions: over 24 hours, control = 1
Procedure: (§1) The extent of growth of the tested bacteria in response to selected glycosides (β-methyl-D-galactoside and α-methyl-D-galactoside) was investigated by setting up growth curves in a nutritionally rich medium (brain heart infusion broth (BHI), Oxoid), over 24 hours. Late exponential growth phase liquid cultures were prepared by transferring the respective bacterium from blood agar plates to BHI and overnight incubation at 37° C. in an anaerobic atmosphere for A. viscosus, V. parvula, F. nucleatum, P. gingivalis, P. intermedia, T. forsythia, A. naeslundii, and C. sputigena, and in a 5% CO2 environment for S. salivarius, S. sanguinis, S. mitis, A. actinomycetemcomitans, S. mutans, S. sobrinus and S. gordonii. Overnight cultures were transferred to BHI and adjusted to a concentration of 1×10^7 CFU/ml (colony forming units per ml) by measuring the optical density at 600 nm (OD600) (BioRad SmartSpec 3000). For each strain, 200 μl of the bacterial suspension was added to a 96-well plate containing 20 μl of the respective glycosides. Final concentrations of the glycosides were set to 5, 10, 20 and 25 μmol/ml. […] Plates were incubated as previously described. For each combination of bacterium/glycoside, and for each of their respective controls (i.e. the particular bacterium in the nutritionally rich medium with no glycoside), the optical density was measured at 630 nm (OD630) at 0 h and 24 h (Thermo Scientific Multiskan Ascent). Additionally, the OD630 for combinations of bacterium/glycosides grown in a 5% CO2 environment were also measured every hour between 0 h and 9 h. […] The experiment was carried out on three different days (thus providing 3 biological replicas) and on each day the experiment was carried out in quadruple (thus providing 4 technical replicas) for each combination of bacterium with glycoside and for each control. For each day and for each combination, the average (mean) of the values obtained (as detailed above) for the four technical replicas was calculated to provide a single value for each combination on each day. The values shown in Tables 5 to 6, below, are the average (mean) of the three single values obtained for each combination of bacterium with glycoside (α-Methyl-D-Galactoside=α-MDG; β-Methyl-D-Galactoside=β-MDG).

Veillonella parvula = test: Twenty-four hour optical density growth in BHI; conditions: over 24 hours, control = 1
Procedure: as §1

Streptococcus salivarius [2] = test: Twenty-four hour optical density growth in BHI; conditions: over 24 hours, control = 1
Procedure: as §1

Tannerella forsythia [3] = test: Twenty-four hour optical density growth in BHI; conditions: over 24 hours, control = 1
Procedure: as §1

Streptococcus mutans = test: Twenty-four hour optical density growth in BHI; conditions: over 24 hours, control = 1
Procedure: as §1

Streptococcus mitis = test: Twenty-four hour biofilm growth (crystal violet); conditions: 24 hours, control = 1
Procedure: (§2) The increase in biofilm formation of the tested bacteria in response to selected glycosides (β-methyl-D-galactoside and α-methyl-D-galactoside) was investigated by setting up biofilm growth assays in a nutritionally rich medium (brain heart infusion broth (BHI), Oxoid), over 24 hours. Late exponential growth phase liquid cultures were prepared by transferring the respective bacterium from blood agar plates to BHI and overnight incubation at 37° C. in an anaerobic atmosphere for A. viscosus, V. parvula, P. gingivalis, P. intermedia, T. forsythia, A. naeslundii, and C. sputigena, and in a 5% CO2 environment for S. salivarius, S. sanguinis, S. mitis, A. actinomycetemcomitans, S. mutans, and S. gordonii. Overnight cultures were transferred to BHI and adjusted to a concentration of 1×10^7 CFU/ml by measuring the optical density at 600 nm (OD600) (BioRad SmartSpec 3000). For each strain, 200 μl of the bacterial suspension was added to a 96-well plate containing 20 μl of the respective glycosides. Final concentrations of the glycosides were set to 5, 10, 20 and 25 μmol/ml. […] Additionally, for each bacterium tested, a background control, to correct for background staining, was added. This background control contained the bacterium tested and 0.03 weight % chlorhexidine, as an antiseptic. Plates were incubated as previously described. After 24 hrs the supernatant was removed from the wells of the plates. The wells were washed twice with 1×100 μL PBS (phosphate buffered saline), fixed for 20 minutes with 96% vol. ethanol (96% vol. solution in water) and the biofilm retained at the bottom of the wells was stained with 1 weight % crystal violet (1 weight % solution in water). The bound dye was dissolved with 5% vol. acetic acid (5% vol. solution in water). Quantification of the stained biofilm was performed by measuring the absorbance at 630 nm using a Multiskan Ascent microplate reader (Thermo Scientific). […] The experiment was carried out on three different days (thus providing 3 biological replicas) and each day the experiment was carried out in quadruple (thus providing 4 technical replicas) for each combination of bacterium with glycoside and for each control. For each day and for each combination, the average (mean) of the values obtained (as detailed above) for the four technical replicas was calculated to provide a single value for each combination on each day. The values shown in Tables 7 to 8, below, are the average (mean) of the three single values obtained for each combination of bacterium with glycoside.

Streptococcus gordonii = test: Twenty-four hour biofilm growth (crystal violet); conditions: 24 hours, control = 1
Procedure: as §2

Streptococcus salivarius [4] = test: Twenty-four hour biofilm growth (crystal violet); conditions: 24 hours, control = 1
Procedure: as §2

Capnocytophaga sputigena = test: Twenty-four hour biofilm growth (crystal violet); conditions: 24 hours, control = 1
Procedure: as §2

Tannerella forsythia [5] = test: Twenty-four hour biofilm growth (crystal violet); conditions: 24 hours, control = 1
Procedure: as §2

Actinomyces naeslundii = test: Twenty-four hour biofilm growth (crystal violet); conditions: 24 hours, control = 1
Procedure: as §2

Porphyromonas gingivalis = test: Twenty-four hour biofilm growth (crystal violet); conditions: 24 hours, control = 1
Procedure: as §2

In the case of `CO[C@H]1O[C@H](CO)[C@H](O)[C@H](O)[C@H]1O` [α-methyl-D-galactoside], the “maximal OD630 divided by control (extent of growth)” value (shortened to “maximal OD630 divided by control”) ([1]; 5 μmol/ml) is reported as 0.7382, the “maximal OD630 divided by control” value ([1]; 10 μmol/ml) is reported as 0.7398 and the “maximal OD630 divided by control” value ([1]; 20 μmol/ml) is reported as 0.7462. The “maximal OD630 divided by control” value ([1]; 25 μmol/ml) was 0.7395, the “maximal OD630 divided by control” value (Veillonella parvula; 5 μmol/ml) was 0.9160 and the “maximal OD630 divided by control” value (Veillonella parvula; 10 μmol/ml) was 0.9528. The “maximal OD630 divided by control” value (Veillonella parvula; 20 μmol/ml) was 0.9141, the “maximal OD630 divided by control” value (Veillonella parvula; 25 μmol/ml) was 0.9326 and the “maximal OD630 divided by control” value (Streptococcus salivarius [2]; 5 μmol/ml) was 0.8965. For the same molecule, the “maximal OD630 divided by control” value (Streptococcus salivarius [2]; 10 μmol/ml) was 0.8910, the “maximal OD630 divided by control” value (Streptococcus salivarius [2]; 20 μmol/ml) was 0.8640 and the “maximal OD630 divided by control” value (Streptococcus salivarius [2]; 25 μmol/ml) was 0.8725. The “maximal OD630 divided by control” value (Tannerella forsythia [3]; 5 μmol/ml) was 0.9724, the “maximal OD630 divided by control” value (Tannerella forsythia [3]; 10 μmol/ml) was 0.9898 and the “maximal OD630 divided by control” value (Tannerella forsythia [3]; 20 μmol/ml) was 0.9846. For the same molecule, the “maximal OD630 divided by control” value (Tannerella forsythia [3]; 25 μmol/ml) was 1.0112, the “maximal OD630 divided by control” value (Streptococcus mutans; 5 μmol/ml) was 0.9703 and the “maximal OD630 divided by control” value (Streptococcus mutans; 10 μmol/ml) was 0.9003. The “maximal OD630 divided by control” value (Streptococcus mutans; 20 μmol/ml) was 0.4212, the “maximal OD630 divided by control” value (Streptococcus mutans; 25 μmol/ml) was 0.2492 and the “biofilm OD 630 nm divided by control (biofilm growth)” value (“biofilm OD 630 nm divided by control” below) (Streptococcus mitis; 5 μmol/ml) was 1.4898. The “biofilm OD 630 nm divided by control” value (Streptococcus mitis; 10 μmol/ml) was 1.2441, the “biofilm OD 630 nm divided by control” value (Streptococcus mitis; 20 μmol/ml) was 1.3917 and the “biofilm OD 630 nm divided by control” value (Streptococcus mitis; 25 μmol/ml) was 1.2800. The “biofilm OD 630 nm divided by control” value (Streptococcus gordonii; 5 μmol/ml) was 0.6940, the “biofilm OD 630 nm divided by control” value (Streptococcus gordonii; 10 μmol/ml) was 0.6458 and the “biofilm OD 630 nm divided by control” value (Streptococcus gordonii; 20 μmol/ml) was 0.6465. For the same molecule, the “biofilm OD 630 nm divided by control” value (Streptococcus gordonii; 25 μmol/ml) was 0.6859, the “biofilm OD 630 nm divided by control” value (Streptococcus salivarius [4]; 5 μmol/ml) was 0.9165 and the “biofilm OD 630 nm divided by control” value (Streptococcus salivarius [4]; 10 μmol/ml) was 0.9115. For the same molecule, the “biofilm OD 630 nm divided by control” value (Streptococcus salivarius [4]; 20 μmol/ml) was 1.1202, the “biofilm OD 630 nm divided by control” value (Streptococcus salivarius [4]; 25 μmol/ml) was 0.9258 and the “biofilm OD 630 nm divided by control” value (Capnocytophaga sputigena; 5 μmol/ml) was 0.9689. The “biofilm OD 630 nm divided by control” value (Capnocytophaga sputigena; 10 μmol/ml) was 1.0025, the “biofilm OD 630 nm divided by control” value (Capnocytophaga sputigena; 20 μmol/ml) was 1.1142 and the “biofilm OD 630 nm divided by control” value (Capnocytophaga sputigena; 25 μmol/ml) was 0.9669. For the same molecule, the “biofilm OD 630 nm divided by control” value (Tannerella forsythia [5]; 5 μmol/ml) was 0.7627, the “biofilm OD 630 nm divided by control” value (Tannerella forsythia [5]; 10 μmol/ml) was 1.0506 and the “biofilm OD 630 nm divided by control” value (Tannerella forsythia [5]; 20 μmol/ml) was 0.8302. For the same molecule, the “biofilm OD 630 nm divided by control” value (Tannerella forsythia [5]; 25 μmol/ml) was 1.0929, the “biofilm OD 630 nm divided by control” value (Actinomyces naeslundii; 5 μmol/ml) was 0.9655 and the “biofilm OD 630 nm divided by control” value (Actinomyces naeslundii; 10 μmol/ml) was 0.9764. The “biofilm OD 630 nm divided by control” value (Actinomyces naeslundii; 20 μmol/ml) was 0.9692, the “biofilm OD 630 nm divided by control” value (Actinomyces naeslundii; 25 μmol/ml) was 0.9789 and the “biofilm OD 630 nm divided by control” value (Porphyromonas gingivalis; 5 μmol/ml) was 0.9047. The “biofilm OD 630 nm divided by control” value (Porphyromonas gingivalis; 10 μmol/ml) was 0.9772, the “biofilm OD 630 nm divided by control” value (Porphyromonas gingivalis; 20 μmol/ml) was 0.9820 and the “biofilm OD 630 nm divided by control” value (Porphyromonas gingivalis; 25 μmol/ml) was 1.0029.

From patent US10307357B2, “Prebiotic oral care compositions containing an alkyl glycoside” (COLGATE-PALMOLIVE COMPANY, priority 2013, dated 2019)
